Where “and” joins values, the source holds several entries; their conditions need not be identical. Equal entries are not always repeated.
Tested on: children undergoing tonsillectomy
Assay: Opioid-related adverse effects and PACU stay by sex, age and morphine dose (Example 6)
[1] = F, total morphine 0.2-<0.3 mg/kg
[2] = M, total morphine 0.2-<0.3 mg/kg
[3] = girls 8-13 years, total morphine <0.3 mg/kg
[4] = girls 8-13 years, total morphine >=0.3 mg/kg
[5] = girls <8 years, total morphine <0.3 mg/kg
[6] = girls <8 years, total morphine >=0.3 mg/kg
[7] = girls >13 years, total morphine <0.3 mg/kg
[8] = girls >13 years, total morphine >=0.3 mg/kg

Description: This was a prospective clinical observational study using a standard perioperative anesthetic and surgical practices and standard postoperative nursing care within the tonsillectomy population.
Clinical criteria for OSA designation included sleep disordered breathing with a history of snoring and either sleep pauses lasting more than 10 seconds or daytime drowsiness. Children were excluded from the study if they or their parents were non-English speaking.
As part of T/TA standard practice at this institution, all children receive prophylactic ondansetron (0.1 mg/kg) and dexamethasone (0.1 mg/kg) intraoperatively. Anesthesia is induced via sevoflurane inhaled induction followed by a propofol (2 mg/kg) bolus to facilitate endotracheal intubation. Anesthesia was maintained with sevoflurane without the use of neuromuscular blockade.
Adverse effects were measured by two sets of binary outcomes: 1) opioid-related side effects including RD, nausea/vomiting (PONV) and pruritus; 2) prolonged PACU stay secondary to respiratory depression or nausea/vomiting.
Duration of PACU stay (time to achieve PACU discharge readiness) was defined as the duration in PACU before achieving the following discharge criteria. […] This discharge readiness time is different from actual PACU discharge time as delays due to social reasons (e.g. waiting for car ride, etc.) were not included.
Prior to analyses, data quality was examined. […] To assess the sex effect, outcome measurements were first compared between boys and girls with and without OSA stratification. Continuous variables were compared using t-test or Wilcoxon rank-sum test and categorical variables were compared using Fisher's exact test.
Effects of age, weight, BMI z scores, and OSA were also tested as covariates for all the outcomes. When significant effects were detected (p<0.05), covariates were included in the final models. Binary outcomes were analyzed using logistic regression. Maximum NRS was analyzed using linear regression. Maximum FLACC score was analyzed by using a zero-inflated negative binomial model because of the inflated frequency of score 0. The total number of analgesic interventions followed a Poisson distribution and was analyzed using a generalized linear model.

Compound: CN1CC[C@]23c4c5ccc(O)c4O[C@H]2[C@@H](O)C=C[C@H]3[C@H]1C5 [morphine]
- PONV, number of cases (F, All): 22
- PONV, proportion (F, All): (10%)
- Prolonged stay in PACU due to PONV, proportion (F, All): (5%)
- Prolonged stay in PACU due to RD, number of cases (F, All): 11
- Prolonged stay in PACU due to RD, proportion (F, All): (5%)
- Pruritus, number of cases (F, All): 88
- Pruritus, proportion (F, All): (41%)
- RD, proportion (F, All): (9%)
- PONV, number of cases (F, OSA No): 11
- PONV, proportion (F, OSA No): (9%)
- Prolonged stay in PACU due to PONV, proportion (F, OSA No): (2%)
- Prolonged stay in PACU due to RD, number of cases (F, OSA No): 5
- Prolonged stay in PACU due to RD, proportion (F, OSA No): (4%)
- Pruritus, number of cases (F, OSA No): 41
- Pruritus, proportion (F, OSA No): (33%)
- RD, number of cases (F, OSA No): 9
- RD, proportion (F, OSA No): (7%)
- PONV, number of cases (F, OSA Yes): 11
- PONV, proportion (F, OSA Yes): (12%)
- Prolonged stay in PACU due to PONV, proportion (F, OSA Yes): (8%)
- Prolonged stay in PACU due to RD, number of cases (F, OSA Yes): 6
- Prolonged stay in PACU due to RD, proportion (F, OSA Yes): (6%)
- Pruritus, number of cases (F, OSA Yes): 47
- Pruritus, proportion (F, OSA Yes): (50%)
- RD, proportion (F, OSA Yes): (12%)
- PONV, number of cases (%) [1]: 8 (16)
- Prolonged stay in PACU due to PONV, number of cases (%) [1]: 3 (6)
- Prolonged stay in PACU due to RD, number of cases (%) [1]: 1 (2)
- Pruritus, number of cases (%) [1]: 42 (84)
- PONV, number of cases (%) (F, total morphine <0.2 mg/kg): 4 (10)
- Prolonged stay in PACU due to PONV, number of cases (%) (F, total morphine <0.2 mg/kg): 2 (5)
- Prolonged stay in PACU due to RD, number of cases (%) (F, total morphine <0.2 mg/kg): 2 (5)
- Pruritus, number of cases (%) (F, total morphine <0.2 mg/kg): 29 (73)
- PONV, number of cases (%) (F, total morphine ≥0.3 mg/kg): 10 (43)
- Prolonged stay in PACU due to PONV, number of cases (%) (F, total morphine ≥0.3 mg/kg): 5 (22)
- Prolonged stay in PACU due to RD, number of cases (%) (F, total morphine ≥0.3 mg/kg): 8 (35)
- Pruritus, number of cases (%) (F, total morphine ≥0.3 mg/kg): 17 (74)
- RD, number of cases (%) (F, total morphine ≥0.3 mg/kg): 12 (52)
- PONV, number of cases (M, All): 14
- PONV, proportion (M, All): (6%)
- Prolonged stay in PACU due to PONV, proportion (M, All): (4%)
- Prolonged stay in PACU due to RD, number of cases (M, All): 13
- Prolonged stay in PACU due to RD, proportion (M, All): (6%)
- Pruritus, number of cases (M, All): 79
- Pruritus, proportion (M, All): (36%)
- RD, proportion (M, All): (8%)
- PONV, number of cases (M, OSA No): 7
- PONV, proportion (M, OSA No): (6%)
- Prolonged stay in PACU due to PONV, proportion (M, OSA No): (5%)
- Prolonged stay in PACU due to RD, number of cases (M, OSA No): 8
- Prolonged stay in PACU due to RD, proportion (M, OSA No): (6%)
- Pruritus, number of cases (M, OSA No): 51
- Pruritus, proportion (M, OSA No): (41%)
- RD, number of cases (M, OSA No): 12
- RD, proportion (M, OSA No): (10%)
- PONV, number of cases (M, OSA Yes): 7
- PONV, proportion (M, OSA Yes): (7%)
- Prolonged stay in PACU due to PONV, proportion (M, OSA Yes): (2%)
- Prolonged stay in PACU due to RD, number of cases (M, OSA Yes): 5
- Prolonged stay in PACU due to RD, proportion (M, OSA Yes): (5%)
- Pruritus, number of cases (M, OSA Yes): 28
- Pruritus, proportion (M, OSA Yes): (30%)
- RD, number of cases (M, OSA Yes): 6
- RD, proportion (M, OSA Yes): (6%)
- PONV, number of cases (%) [2]: 7 (15)
- Prolonged stay in PACU due to PONV, number of cases (%) [2]: 3 (6)
- Prolonged stay in PACU due to RD, number of cases (%) [2]: 3 (6)
- Pruritus, number of cases (%) [2]: 35 (76)
- RD, number of cases (%) [2]: 6 (13)
- PONV, number of cases (%) (M, total morphine <0.2 mg/kg): 6 (18)
- Prolonged stay in PACU due to PONV, number of cases (%) (M, total morphine <0.2 mg/kg): 4 (12)
- Prolonged stay in PACU due to RD, number of cases (%) (M, total morphine <0.2 mg/kg): 5 (15)
- Pruritus, number of cases (%) (M, total morphine <0.2 mg/kg): 24
- RD, number of cases (%) (M, total morphine <0.2 mg/kg): 4 (12)
- PONV, number of cases (%) (M, total morphine ≥0.3 mg/kg): 1 (4)
- Prolonged stay in PACU due to PONV, number of cases (%) (M, total morphine ≥0.3 mg/kg): 1 (4)
- Prolonged stay in PACU due to RD, number of cases (%) (M, total morphine ≥0.3 mg/kg): 5 (20)
- Pruritus, number of cases (%) (M, total morphine ≥0.3 mg/kg): 20 (80)
- RD, number of cases (%) (M, total morphine ≥0.3 mg/kg): 8 (32)
- PONV, number of cases (%) [3]: 2 (5)
- Prolonged stay in PACU due to PONV, number of cases (%) [3]: 2 (5)
- Prolonged stay in PACU due to RD, number of cases (%) [3]: 1 (2)
- Respiratory depression (RD), number of cases (%) [3]: 4 (9)
- PONV, number of cases (%) [4]: 1 (11)
- Prolonged stay in PACU due to PONV, number of cases (%) [4]: 1 (11)
- Prolonged stay in PACU due to RD, number of cases (%) [4]: 3 (33)
- Respiratory depression (RD), number of cases (%) [4]: 5 (56)
- PONV, number of cases (%) [5]: 7 (19)
- Prolonged stay in PACU due to PONV, number of cases (%) [5]: 2 (5)
- Prolonged stay in PACU due to RD, number of cases (%) [5]: 2 (5)
- Respiratory depression (RD), number of cases (%) [5]: 3 (8)
- PONV, number of cases (%) [6]: 6 (60)
- Prolonged stay in PACU due to PONV, number of cases (%) [6]: 4 (40)
- Prolonged stay in PACU due to RD, number of cases (%) [6]: 4 (40)
- Respiratory depression (RD), number of cases (%) [6]: 5 (50)
- PONV, number of cases (%) [7]: 1 (9)
- Prolonged stay in PACU due to PONV, number of cases (%) [7]: 1 (9)
- Prolonged stay in PACU due to RD, number of cases (%) [7]: 0 (0)
- Respiratory depression (RD), number of cases (%) [7]: 1 (9)
- PONV, number of cases (%) [8]: 0 (0)
- Prolonged stay in PACU due to PONV, number of cases (%) [8]: 0 (0)
- Prolonged stay in PACU due to RD, number of cases (%) [8]: 1 (25)
- Respiratory depression (RD), number of cases (%) [8]: 2 (50)
- probability of all opioid adverse effects except for pruritus (girls, morphine exceeded 0.3 mg/kg, multivariate models): increased significantly
- duration of stay in PACU (white boys, <0.3 mg/kg total morphine): 88.3 ± 3.6 min
- duration of stay in PACU (white boys, ≥0.3 mg/kg total morphine): 99.7 ± 6.4 min
- duration of stay in PACU (white girls, <0.3 mg/kg total morphine): 82.2 ± 3.3 min
- duration of stay in PACU (white girls, ≥0.3 mg/kg total morphine, 0.3 mg/kg): 111 ± 6.6 min and 111.1 ± 6.6 min
